Legend:
[1] = test system: T1, PARP1; set-up: method as in PMID 28001384; conditions: selectivity PARP1 over TNKS1; cited from earlier work
T1 construct: To assess if these observations extend to endogenous cellular settings; endogenous in cells; host or cells: NCI-H1048 cell lysate

[2] = clinical dose of 1 mg once a day; cited from earlier work
[3] = test system: TNKS1; assay: Biotin probe competition pulldown in NCI-H1048 cell lysate, Western blot for TNKS1; conditions: talazoparib versus olaparib, 30 min pretreatment, biotin probes
Protocol: Proteins bound to streptavidin were released and subjected to Western blot analysis for either PARP1 (top) or TNKS1 (bottom).
Lysate was then spun at 1500 rpm for 3 min, and the soluble fraction was transferred to a new tube on ice.
Conjugated beads were washed three times with wash buffer (50 mM Hepes [Fisher Scientific AAJ60712AK], 150 mM NaCl [Invitrogen, AM9759], and 1% nonyl phenoxypolyethoxylethanol [Fisher Scientific NC9168253]) rotating for 3 min. All PARP inhibitor pulldowns were from 1 mg/ml of protein lysate.

[4] = molecular target: the molecule itself; assay: crystal structure; TNKS1 ART domain, apo and with talazoparib, olaparib, niraparib or veliparib; sitting-drop vapor diffusion at 4 °C; several crystal forms with multiple molecules in the asymmetric unit

CN(C)CC(=O)Nc1ccc2[nH]c(=O)c3ccccc3c2c1 [PJ34]
fold lower IC50 for PARP1 than for TNKS1 [1]: over 25 fold

Cn1ncnc1[C@H]1c2n[nH]c(=O)c3cc(F)cc(c23)N[C@@H]1c1ccc(F)cc1 [Talazoparib, talazoparib]
free plasma concentration [2]: ~17 nM
greater ability to prevent binding to TNKS1 [3]: approximately 1000 fold

B1: tankyrase1 (TNKS1) ART domain (residues 1104-1314) (domain or fragment, UniProt O95271 1104-1314, looked up)
chain: QGTILLDLAPEDKEYQSVEEEMQSTIREHRDGGNAGGIFNRYNVIRIQKVVNKKLRERFCHRQKEVSEENHNHHNERMLFHGSPFINAIIHKGFDERHAYIGGMFGAGIYFAENSSKSNQYVYGIGGGTGCPTHKDRSCYICHRQMLFCRVTLGKSFLQFSTMKMAHAPPGHHSVIGRPSVNGLAYAEYVIYRGEQAYPEYLITYQIMKPE
notes: tankyrase1 (TNKS1, PARP5a), ART domain, residues 1104-1314; also called PARP5a; not shown: His6, N-terminal, cleaved
binding result [4]: binds

Reference: PMC7948648 (The Journal of Biological Chemistry, 2021)
